T1: Ncad-Fc protein (chicken N-cadherin ectodomain fused to the Fc fragment of mouse IgG2b) (Gallus gallus, UniProt P10288)
T1 construct: chicken N-cadherin ectodomain fused to the Fc fragment of mouse IgG2b
T1 sequence (P10288 165-729 limits assumed): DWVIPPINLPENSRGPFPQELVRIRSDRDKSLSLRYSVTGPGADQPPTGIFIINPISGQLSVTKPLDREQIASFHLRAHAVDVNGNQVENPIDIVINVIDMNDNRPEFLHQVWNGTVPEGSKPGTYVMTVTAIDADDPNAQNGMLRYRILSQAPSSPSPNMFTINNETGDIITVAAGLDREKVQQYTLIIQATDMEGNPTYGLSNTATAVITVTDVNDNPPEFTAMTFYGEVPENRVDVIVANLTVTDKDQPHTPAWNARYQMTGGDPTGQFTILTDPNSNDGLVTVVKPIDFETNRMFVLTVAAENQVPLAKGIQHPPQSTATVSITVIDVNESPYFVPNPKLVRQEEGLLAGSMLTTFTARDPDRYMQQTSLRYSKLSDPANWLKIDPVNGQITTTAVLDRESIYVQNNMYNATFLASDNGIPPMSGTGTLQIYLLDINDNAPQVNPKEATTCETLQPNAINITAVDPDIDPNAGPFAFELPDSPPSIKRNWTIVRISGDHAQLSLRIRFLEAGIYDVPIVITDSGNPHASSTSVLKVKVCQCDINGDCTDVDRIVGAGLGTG

B1: Ncad-Fc protein (chicken N-cadherin ectodomain fused to the Fc fragment of mouse IgG2b) (Fc fusion, UniProt P10288 165-729, looked up)
chain: T1 sequence (P10288 165-729 limits assumed)
notes: extracellular domain; Captured on magnetic Dynabeads Protein A for the bead-bead aggregation assay; also called N-cadherin coated Dynabeads; not shown: Fc fragment of mouse IgG2b

Biological target: T1, Ncad-Fc protein (chicken N-cadherin ectodomain fused to the Fc fragment of mouse IgG2b)
Assay: Ncad-Fc bead-bead aggregation assay
Format: biochemical
Conditions: N-cadherin coated Dynabeads, 30 minutes to 1 hour at 37° C.
Description: Compounds of the invention were assayed according to the following procedures.
(§1) 10 μl of magnetic Dynabeads® Protein A (Prod. No. 100.01) were pipetted into a 1.5 ml eppendorf tube and washed with 0.5 ml of PBS (1×), 0.1% Tween 20, and 2 mM EGTA using the Dynal MPC-S Magnetic Particle Concentrator. Supernatant was aspirated, the magnet was removed and beads were washed once more with same buffer using the Dynal MPC-S Magnetic Particle Concentrator. Following this supernatant was once again removed and the beads were resuspended in 10 μl of PBS (1×), 0.1% Tween 20, and 2 mM EGTA buffer.
(§2) An equal 10 ul volume of Ncad-Fc protein (0.25 mg/10 μl, chicken N-cadherin ectodomain fused to the Fc fragment of mouse IgG2b) or human Fc (Jackson Immunoresearch, concentration 2.3 mg/ml) suspended in PBS (1×), 0.1% Tween 20, 2 mM EGTA and 1% BSA (Sigma, Prod. No. A0281) was added and incubated for 1-2 hours at room temperature on the Vortex Genie 2, followed by three washes in 0.5 ml of the same buffer. The beads were then resuspended in 80 μl PBS (1×) plus 1% BSA (dilution 1/8) and kept on ice.
The aggregation assay was performed in duplicates in 12 well/6 mm slides (CEL-LINE/ERIE SCIENTIFIC CO. Prod. No. 10-103). Experimentation was conducted in eppendorf tubes containing […] of DMEM medium ([…] glucose, Gibco Prod. No. 21 885-025)+10% Fetal Calf Serum (FCS) containing an N-cadherin inhibitor or calcium chelator (EDTA, EGTA) with the addition of 4 μl of N-cadherin coated Dynabeads®. The resulting bead solutions were gently mixed on ice followed by 50 μl of solution deposited per well.
Slides were incubated for 30 minutes to 1 hour at 37° C. and 5% CO2. After incubation two images per well were recorded on an inverted microscope (Nikon Diaphot) at 20× magnification, with an 8 Volt illumination using a Nikon D100. Images were analyzed using the Bead Counting software program from Metamorph (Meta Imaging Series 6.2r6).
In this assay, in the absence of inhibitor, the beads bind to each other and aggregate due to dimerization of the N-cadherin molecules on the surfaces of the beads. Accordingly, compounds effective for disrupting N-cadherin-mediated cell adhesion can be identified on the basis of whether they disrupt bead-bead aggregation in this assay.

active in Ncad-Fc bead-bead aggregation assay (disrupt bead-bead aggregation)	Molecule
active	CCc1nnc(-c2ccc(C(C)(C)C)cc2)[nH]1 [compound 1-1, 3-(4-Tert-Butylphenyl)-5-Ethyl-4H-[1,2,4]Triazole]
active	Cc1cccc(-c2nnc(C)[nH]2)c1 [compound 5-1, 3-Methyl-5-M-Tolyl-4H-[1,2,4]Triazole]
active	Cc1nnc(-c2ccccc2Cl)[nH]1 [compound 7-1, 3-(2-Chlorophenyl)-5-Methyl-4H-[1,2,4]Triazole]
active	Cc1nnc(-c2cccc(Cl)c2)[nH]1 [compound 8-1, 3-(3-Chlorophenyl)-5-Methyl-4H-[1,2,4]Triazole]
active	Cc1nnc(-c2ccc(Cl)cc2)[nH]1 [compound 9-1, 3-(4-Chlorophenyl)-5-Methyl-4H-[1,2,4]Triazole]
active	Cc1nnc(Cc2ccccc2)[nH]1 [compound 10-1, 3-Benzyl-5-Methyl-4H-[1,2,4]Triazole]
active	COc1cccc(-c2nnc(C)[nH]2)c1 [compound 11-1, 3-(3-Methoxyphenyl)-5-Methyl-4H-[1,2,4]Triazole]
active	COc1ccc(-c2nnc(C)[nH]2)cc1 [compound 12-1, 3-(4-Methoxyphenyl)-5-Methyl-4H-[1,2,4]Triazole]
active	Cc1nnc(-c2ccc(Cl)c(Cl)c2)[nH]1 [compound 14-1, 3-(3,4-Dichlorophenyl)-5-Methyl-4H-[1,2,4]Triazole]
active	CC(C)(C)c1ccc(-c2nnc(N)[nH]2)cc1 [compound 50-1, 5-(4-Tert-Butylphenyl)-4H-[1,2,4]Triazol-3-Ylamine]
active	Cc1nnc(-c2ccc(C(C)(C)C)cc2)[nH]1 [compound 53-1, 3-(4-Tert-Butylphenyl)-5-Methyl-4H-[1,2,4]Triazole]
active	Cc1nnc(-c2ccccn2)[nH]1 [compound 65-1, 2-(5-Methyl-4H-[1,2,4]Triazol-3-Yl)-Pyridine]
active	Cc1nnc(-c2cccnc2)[nH]1 [compound 66-1, 3-(5-Methyl-4H-[1,2,4]Triazol-3-Yl)-Pyridine]
active	Cc1nnc(-c2ccncc2)[nH]1 [compound 67-1, 4-(5-Methyl-4H-[1,2,4]Triazol-3-Yl)-Pyridine]
active	Cc1nnc(-c2cccs2)[nH]1 [compound 68-1, 3-Methyl-5-Thiophen-2-Yl-4H-[1,2,4]Triazole]

Biological target: the molecule itself
Assay: bead-bead aggregation assay, Ncad-Fc on Protein A Dynabeads, microscopy and bead counting
Conditions: not given
Description: as §1, §2
The aggregation assay was performed in duplicates in 12 well/6 mm slides (CEL-LINE/ERIE SCIENTIFIC CO. Prod. No. 10-103). […]

Molecule	binding result
B1	binds

Test system: retinal explants on substrate protein (Human N-cadherin-Fc or Laminin)
Assay: Culture of retinal explants and quantification of neurite outgrowth
Format: cell-based, White Leghorn chick
Conditions: embryonic day 8 chick retina explants, examined approximately 20 hours after plating
Description: Tissue culture dishes were coated with nitrocellulose and allowed to dry (Lagenaur and Lemmon, [citation?] 1987). Substrate protein (Human N-cadherin-Fc or Laminin) was spread across the central region of each dish. Retinal explant cultures were made according to a previously described procedure (Halfter, W. et al., Dev. Biol., 95:56-64, 1983; Drazba, J. and Lemmon, V., Dev. Biol., 138:82-93, 1990). In brief, embryonic day 8 (stage 32-34 according to Hamburger and Hamilton, [citation?] 1951) White Leghorn chick eyes were dissected and the retina was flattened with the photoreceptor side down onto black nitrocellulose filters that had previously been incubated in concanavalin A. The filter was then cut into strips perpendicular to the optic fissure. Strips were inverted onto substrate-coated culture dishes so that the gang lion cell layer was directly adjacent to the substratum. N-cadherin small molecule antagonists were diluted in the culture medium and added at the time of plating. Neurite outgrowth was examined at approximately 20 hours after plating.
Neurite outgrowth from retina explants was catalogued using a SPOT RT digital camera and image acquisition software. The length of the five longest neurites per explant were measured (Burden-Gulley, S. M. and Brady-Kalnay, S. M. J. Cell Biol., 144:1323-1336, 1999). To measure neurite density, the region of neurite outgrowth was outlined to define the region of interest and the neurites were highlighted using Metamorph software. Data from similar experimental conditions were combined, analyzed by Student's t test and plotted.

Molecule	inhibit neurite outgrowth
CCc1nnc(-c2ccc(C(C)(C)C)cc2)[nH]1 [compound 1-1, 3-(4-Tert-Butylphenyl)-5-Ethyl-4H-[1,2,4]Triazole]	inhibit neurite outgrowth
CC(C)c1nnc(-c2ccc(C(C)(C)C)cc2)[nH]1 [compound 21-1, 3-(4-Tert-Butylphenyl)-5-Isopropyl-4H-[1,2,4]Triazole]	inhibit neurite outgrowth
CC(C)(C)c1ccc(-c2nnc(C3CC3)[nH]2)cc1 [compound 22-1, 3-(4-Tert-Butylphenyl)-5-Cyclopropyl-4H-[1,2,4]Triazole]	inhibit neurite outgrowth
CC(C)(C)c1ccc(-c2nnc(C3CCC3)[nH]2)cc1 [compound 25-1, 3-(4-Tert-Butylphenyl)-5-Cyclobutyl-4H-[1,2,4]Triazole]	inhibit neurite outgrowth
CC(C)(C)c1ccc(-c2nnc(Cc3ccccc3)[nH]2)cc1 [compound 26-1, 3-Benzyl-5-(4-Tert-Butylphenyl)-4H-[1,2,4]Triazole]	inhibit neurite outgrowth
CC(C)(C)c1ccc(-c2nnc(-c3cnccn3)[nH]2)cc1 [compound 28-1, 2-[5-(4-Tert-Butylphenyl)-4H-[1,2,4]Triazol-3-Yl]-Pyrazine]	inhibit neurite outgrowth
Cn1nc(-c2ccc(C(C)(C)C)cc2)nc1S [compound 46-1, 5-(4-Tert-Butylphenyl)-2-Methyl-2H-[1,2,4]Triazole-3-Thiol]	inhibit neurite outgrowth
Cc1nnc(-c2ccc(C(C)(C)C)cc2)[nH]1 [compound 53-1, 3-(4-Tert-Butylphenyl)-5-Methyl-4H-[1,2,4]Triazole]	inhibit neurite outgrowth
CC(C)(C)c1ccc(-c2nnc(C(F)F)[nH]2)cc1 [compound 57-1, 3-(4-Tert-Butylphenyl)-5-Difluoromethyl-4H-[1,2,4]Triazole]	inhibit neurite outgrowth
Cc1cnc(-c2ccc(C(C)(C)C)cc2)[nH]1 [compound 64-1, 2-(4-Tert-Butylphenyl)-5-Methyl-1H-Imidazole]	inhibit neurite outgrowth
COc1ccc(-c2nnc(S)[nH]2)cc1 [compound 69-2]	inhibit neurite outgrowth
Sc1nnc(-c2cccs2)[nH]1 [compound 69-4]	inhibit neurite outgrowth
